Converted amounts (≈) assume the structure as drawn. Read-outs that look alike come from different tables or passages of the source. Non-standard residues stand in square brackets, D forms with d. Residues, ends and D or L forms follow the SMILES beside them.
Columns and labels:
S. aureus isolates [1] = type: cell-based, Staphylococcus aureus
Procedure: (§1) Minimum inhibitory concentrations (MIC) of KLK, mKLK, and vancomycin were determined using microdilution broth assay according to clinical and laboratory standards institute (CLSI) guidelines with some modifications. Briefly, overnight cultures were diluted in Muller-Hinton broth (MHB; Merck, Germany) to achieve a final density of 5 × 10^5 CFU/ml. A volume of 100 μl of bacterial suspension was added to wells of sterile 96-well plates containing 100 μl of two-fold peptide dilutions, ranging from 0.25 to 256 µg/ml. Vancomycin was used as a positive control in this assay. […] MBC was determined by removing samples from wells with no visible growth, serially diluting, and plating on Mueller Hinton (MH) agar plates for CFU counting.

24-h S. aureus biofilms = test: Biofilm dispersal activity (crystal violet); type: cell-based, Staphylococcus aureus
Procedure: To investigate the dispersal activity of KLK and mKLK peptide, the 24-h S. aureus biofilms were prepared in TSB medium in the 96-well plates. Then, the final concentrations of 1×, 2×, and 4 × MIC were prepared for each peptide in the wells. After incubation at 37 °C for 12 h, plates were washed with PBS three times to discard unattached bacteria. Subsequently, plates were stained with 250 μl of 0.5% crystal violet for 20 min at room temperature. Then, the wells were washed and 250 μl 33% acetic acid was added to them. Finally, the absorbance was measured at 570 nm using a microplate reader.

Human red blood cells = test: in vitro
Procedure: (§2) The assay was performed using fresh human blood samples containing citrate phosphate dextrose anticoagulant collected from a blood bank (Iranian Blood Transfusion Organization). Human red blood cells (RBC) were centrifuged at 1700×g for 5 min; then the supernatant was removed and the erythrocyte pellet was diluted 1:100 in PBS to obtain a 1% erythrocyte suspension. […] Then, 50 μl of the 1% erythrocyte suspension and 50 μl of the peptides were mixed and added to wells of a 96-well polypropylene conical bottom microplate and incubated at 37 °C for 1 h. Following centrifugation of the samples at 1700×g for 5 min, 50 μl of the supernatant was transferred to wells of a 96-well flat-bottom plate for the absorbance measurement at 405 nm in a microplate reader. Identical volumes of Triton X-100 (1%) and PBS were used as positive and negative controls, respectively. The selectivity indexes (SI) were also determined as a toxicity indicator.

in vitro = conditions: human
Procedure: as §2

S. aureus strains = type: cell-based, Staphylococcus aureus; conditions: for inhibition of biofilm formation: strains, 24 h
Procedure: To investigate the inhibitory effect of KLK and mKLK peptides on bacterial surface attachment and biofilm formation, the bacterial suspension in TSB with a concentration of 10^7 CFU/ml was prepared from overnight culture. An aliquot of 100 μl of the bacterial suspension was added to wells of 96-well plates containing 100 μl of the peptides solution with concentrations of 1×, 1/2× and 1/4× MIC, resulting in the final peptides concentrations of 1/2×, 1/4× and 1/8× MIC. To investigate the inhibitory effect of the peptides on surface attachment the incubation was performed at 37 °C for 2 h and to evaluate their inhibitory activity on biofilm formation the incubation was performed at 37 °C for 24 h. The wells containing only TSB medium were used as negative controls. After incubation, the contents of the wells were removed and washed three times with PBS and the wells were stained with 200 μl of 0.1% crystal violet for 20 min. The plates were washed again and excess dye was removed. A volume of 200 μl of 95% ethanol was added to each well for 20 min and absorbance was measured at 570 nm by a microplate reader.

S. aureus isolates [2] = test: microbe, parasite or virus in culture; type: cell-based, Staphylococcus aureus
Procedure: as §1

[3] = test system: one MRSA and reference strain (ATCC25923); test: Time-kill kinetics assay
Procedure: The peptide-free control was included for each strain. Following incubation at 37 °C for 0, 0.25, 0.5, 1, 2, 4, 5, and 24 h, each sample was serially diluted, plated onto Mueller–Hinton (MH) agar (Merck, Germany) plates and incubated at 37 °C. The viable plate count method was performed after incubation for 24 h and the counts were expressed as Log CFU/ml[44].

SMILES: CC(C)C[C@@H](NC(=O)[C@H](N)CCCCN)C(=O)N[C@H](CCCCN)C(=O)N[C@H](CC(C)C)C(=O)N[C@H](CC(C)C)C(=O)N[C@H](CC(C)C)C(=O)N[C@H](CC(C)C)C(=O)N[C@H](CC(C)C)C(=O)N[C@H](CCCCN)C(=O)N[C@H](CC(C)C)C(=O)N[C@H](CCCCN)C(N)=O [KLK] (H-[dK][dL][dK][dL][dL][dL][dL][dL][dK][dL][dK]-NH2; N-terminus assumed)
- MBC (S. aureus isolates [1]; ATCC25923): 4 mg/L (≈ 3.03 µM)
- MBC (S. aureus isolates [1]; MRSA-1): 8 mg/L (≈ 6.05 µM)
- MBC (S. aureus isolates [1]; MRSA-2): 8 mg/L (≈ 6.05 µM)
- MBC (S. aureus isolates [1]; MRSA-3): 8 mg/L (≈ 6.05 µM)
- MBC (S. aureus isolates [1]; MSSA-1): 4 mg/L (≈ 3.03 µM)
- MBC (S. aureus isolates [1]; MSSA-2): 4 mg/L (≈ 3.03 µM)
- crystal violet absorbance at 570 nm, dispersal activity, Mean±SD (24-h S. aureus biofilms; ATCC25923, 1MIC, control 2.79±0.03): 2.451±0.007
- crystal violet absorbance at 570 nm, dispersal activity, Mean±SD (24-h S. aureus biofilms; ATCC25923, 2MIC, control 2.79±0.03): 2.322±0.02
- crystal violet absorbance at 570 nm, dispersal activity, Mean±SD (24-h S. aureus biofilms; ATCC25923, 4MIC, control 2.79±0.03): 2.017±0.01
- crystal violet absorbance at 570 nm, dispersal activity, Mean±SD (24-h S. aureus biofilms; MRSA-1, 1MIC, control 1.903±0.003): 1.695±0.05
- crystal violet absorbance at 570 nm, dispersal activity, Mean±SD (24-h S. aureus biofilms; MRSA-1, 2MIC, control 1.903±0.003): 1.649±0.06
- crystal violet absorbance at 570 nm, dispersal activity, Mean±SD (24-h S. aureus biofilms; MRSA-1, 4MIC, control 1.903±0.003): 1.426±0.01
- crystal violet absorbance at 570 nm, dispersal activity, Mean±SD (24-h S. aureus biofilms; MRSA-2, 1MIC, control 2.014±0.01): 1.804±0.006
- crystal violet absorbance at 570 nm, dispersal activity, Mean±SD (24-h S. aureus biofilms; MRSA-2, 2MIC, control 2.014±0.01): 1.71±0.01
- crystal violet absorbance at 570 nm, dispersal activity, Mean±SD (24-h S. aureus biofilms; MRSA-2, 4MIC, control 2.014±0.01): 1.643±0.01
- crystal violet absorbance at 570 nm, dispersal activity, Mean±SD (24-h S. aureus biofilms; MRSA-3, 2MIC, control 1.255±0.29): 1.1±0.09
- crystal violet absorbance at 570 nm, dispersal activity, Mean±SD (24-h S. aureus biofilms; MRSA-3, 4MIC, control 1.255±0.29): 0.996±0.04
- crystal violet absorbance at 570 nm, dispersal activity, Mean±SD (24-h S. aureus biofilms; MSSA-1, 1MIC, control 1.787±0.1): 1.589±0.01
- crystal violet absorbance at 570 nm, dispersal activity, Mean±SD (24-h S. aureus biofilms; MSSA-1, 2MIC, control 1.787±0.1): 1.483±0.01
- crystal violet absorbance at 570 nm, dispersal activity, Mean±SD (24-h S. aureus biofilms; MSSA-1, 4MIC, control 1.787±0.1): 1.348±0.01
- crystal violet absorbance at 570 nm, dispersal activity, Mean±SD (24-h S. aureus biofilms; MSSA-2, 1MIC, control 2.116±0.006): 1.858±0.12
- crystal violet absorbance at 570 nm, dispersal activity, Mean±SD (24-h S. aureus biofilms; MSSA-2, 2MIC, control 2.116±0.006): 1.713±0.06
- crystal violet absorbance at 570 nm, dispersal activity, Mean±SD (24-h S. aureus biofilms; MSSA-2, 4MIC, control 2.116±0.006): 1.52±0.001
- HC50 (Human red blood cells): 38.49 µg/mL
- HC50 (Human red blood cells; red cells of human, 1 h): 29.1 µM
- hemolysis at 1 h, 1.56 µM (in vitro): 10.4%
- hemolysis at 1 h, 3.12 µM (in vitro): 18.3%
- hemolysis at 1 h, 6.25 µM (in vitro): 27.1%
- hemolysis at 1 h, 12.5 µM (in vitro): 34.2%
- hemolysis at 1 h, 25 µM (in vitro): 42.8%
- hemolysis at 1 h, 50 µM (in vitro): 71.5%
- hemolysis at 1 h, 75 µM (in vitro): 80.1%
- hemolysis at 1 h, 100 µM (in vitro): 88.3%
- hemolysis at 1 h, 150 µM (in vitro): 92.2%
- hemolysis at 1 h, 200 µM (in vitro): 95.4%
- crystal violet absorbance at 570 nm, biofilm formation, Mean±SD (S. aureus strains; ATCC25923, 1/2MIC, control 2.302±0.006): 1.654±0.006
- crystal violet absorbance at 570 nm, biofilm formation, Mean±SD (S. aureus strains; ATCC25923, 1/4MIC, control 2.302±0.006): 2.069±0.04
- crystal violet absorbance at 570 nm, biofilm formation, Mean±SD (S. aureus strains; ATCC25923, 1/8MIC, control 2.302±0.006): 2.113±0.01
- crystal violet absorbance at 570 nm, biofilm formation, Mean±SD (S. aureus strains; MRSA-1, 1/2MIC, control 2.115±0.01): 1.606±0.01
- crystal violet absorbance at 570 nm, biofilm formation, Mean±SD (S. aureus strains; MRSA-1, 1/4MIC, control 2.115±0.01): 1.924±0.004
- crystal violet absorbance at 570 nm, biofilm formation, Mean±SD (S. aureus strains; MRSA-1, 1/8MIC, control 2.115±0.01): 1.947±0.05
- crystal violet absorbance at 570 nm, biofilm formation, Mean±SD (S. aureus strains; MRSA-2, 1/2MIC, control 2.354±0.04): 1.861±0.007
- crystal violet absorbance at 570 nm, biofilm formation, Mean±SD (S. aureus strains; MRSA-2, 1/4MIC, control 2.354±0.04): 2.128±0.01
- crystal violet absorbance at 570 nm, biofilm formation, Mean±SD (S. aureus strains; MRSA-2, 1/8MIC, control 2.354±0.04): 2.187±0.002
- crystal violet absorbance at 570 nm, biofilm formation, Mean±SD (S. aureus strains; MRSA-3, 1/2MIC, control 1.541±0.02): 0.204±0.03
- crystal violet absorbance at 570 nm, biofilm formation, Mean±SD (S. aureus strains; MRSA-3, 1/4MIC, control 1.541±0.02): 1.739±0.002
- crystal violet absorbance at 570 nm, biofilm formation, Mean±SD (S. aureus strains; MRSA-3, 1/8MIC, control 1.541±0.02): 1.441±0.04
- crystal violet absorbance at 570 nm, biofilm formation, Mean±SD (S. aureus strains; MSSA-1, 1/2MIC, control 2.190±0.01): 1.609±0.03
- crystal violet absorbance at 570 nm, biofilm formation, Mean±SD (S. aureus strains; MSSA-1, 1/4MIC, control 2.190±0.01): 1.971±0.10
- crystal violet absorbance at 570 nm, biofilm formation, Mean±SD (S. aureus strains; MSSA-1, 1/8MIC, control 2.190±0.01): 2.007±0.13
- crystal violet absorbance at 570 nm, biofilm formation, Mean±SD (S. aureus strains; MSSA-2, 1/2MIC, control 1.802±0.02): 1.261±0.01
- crystal violet absorbance at 570 nm, biofilm formation, Mean±SD (S. aureus strains; MSSA-2, 1/4MIC, control 1.802±0.02): 1.627±0.01
- crystal violet absorbance at 570 nm, biofilm formation, Mean±SD (S. aureus strains; MSSA-2, 1/8MIC, control 1.802±0.02): 1.633±0.04
- inhibition of biofilm formation (S. aureus strains; 2): 48-66%
- inhibition of biofilm formation (S. aureus strains; 4): 9-11%
- inhibition of biofilm formation (S. aureus strains; 8): 6-9%
- MIC (S. aureus isolates [2]; ATCC25923): 4 mg/L (≈ 3.03 µM)
- MIC (S. aureus isolates [2]; MRSA-1): 8 mg/L (≈ 6.05 µM)
- MIC (S. aureus isolates [2]; MRSA-2): 8 mg/L (≈ 6.05 µM)
- MIC (S. aureus isolates [2]; MRSA-3): 8 mg/L (≈ 6.05 µM)
- MIC (S. aureus isolates [2]; MSSA-1): 4 mg/L (≈ 3.03 µM)
- MIC (S. aureus isolates [2]; MSSA-2): 4 mg/L (≈ 3.03 µM)
- MIC (S. aureus isolates [2]; three MRSA isolates): 8 mg/L (≈ 6.05 µM)
- MIC (S. aureus isolates [2]; two MSSA isolates): 4 mg/L (≈ 3.03 µM)
- time after which no regrowth was observed ([3]; ATCC 25923, 1 × MIC (4 μg/ml)): 30 min
- time after which no regrowth was observed ([3]; ATCC 25923, 2 × MIC (8 μg/ml)): 15 min
- time after which no regrowth was observed ([3]; MRSA, 1 × MIC): 300 min
- reduction in viable cell count ([3]; MRSA, 1 × MIC (8 μg/ml), within 2 h): ~ 1 log
